This is an account of results in ChEMBL document CHEMBL1129641 (J Med Chem, 1996).

pKi: −log10 of the molar value.

Assay [1] deals with T1, Beta-2 adrenergic receptor (Homo sapiens, UniProt P07550). Particulars: CHO.
Target sequence in this assay (P07550 whole entry, looked up): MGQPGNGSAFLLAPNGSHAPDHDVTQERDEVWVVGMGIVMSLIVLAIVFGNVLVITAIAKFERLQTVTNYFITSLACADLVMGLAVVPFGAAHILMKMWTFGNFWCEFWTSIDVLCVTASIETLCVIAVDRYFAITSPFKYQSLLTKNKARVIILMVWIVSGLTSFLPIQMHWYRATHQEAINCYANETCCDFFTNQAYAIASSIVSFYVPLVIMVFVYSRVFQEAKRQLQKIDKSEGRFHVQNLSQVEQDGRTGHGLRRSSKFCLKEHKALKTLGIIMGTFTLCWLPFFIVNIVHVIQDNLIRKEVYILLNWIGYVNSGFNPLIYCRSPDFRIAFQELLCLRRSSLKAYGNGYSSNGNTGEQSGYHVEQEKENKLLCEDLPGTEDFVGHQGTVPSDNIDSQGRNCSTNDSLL
Description: Binding affinity for human beta-2 Adrenoceptor (AR) expressed in CHO cells by radioligand competition binding assays using [125I]-iodocyanopindolol (ICYP); PR = potency ratio relative to TMQ
The target of assay [2] is T2, Thromboxane A2 receptor (Homo sapiens) (UniProt P21731).
T2 sequence (whole entry): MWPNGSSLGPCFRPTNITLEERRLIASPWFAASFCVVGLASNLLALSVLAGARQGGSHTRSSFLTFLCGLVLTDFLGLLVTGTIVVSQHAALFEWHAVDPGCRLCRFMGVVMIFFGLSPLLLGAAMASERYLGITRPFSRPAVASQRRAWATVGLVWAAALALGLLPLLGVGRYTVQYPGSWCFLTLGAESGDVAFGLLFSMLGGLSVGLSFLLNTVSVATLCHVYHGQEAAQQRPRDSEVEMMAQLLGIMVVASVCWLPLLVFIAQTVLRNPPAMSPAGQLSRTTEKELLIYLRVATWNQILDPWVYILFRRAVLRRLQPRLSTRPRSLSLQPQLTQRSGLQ
Nature of the assay: Binding affinity for human Platelet Thromboxane A2 / Prostaglandin (TP), by radioligand competition binding assays using [3H]-SQ 29548 as radioligand. PR = potency ratio relative to TMQ. A general note: Loss of bound radioactivity is the signal in a displacement assay; it reports binding, not function.

Assay [3] concerns the target T1, Beta-2 adrenergic receptor. Kind of assay: Binding affinity for human Beta-2 adrenergic receptor expressed in CHO cells by radioligand competition binding assays using [125I]iodocyanopindolol (ICYP). The assay is classed as cell-based.
Target sequence in this assay (P07550 whole entry): as the sequence (P07550 whole entry, looked up) above
Assay [4] concerns the target T3, Thromboxane A2 receptor (Homo sapiens, UniProt P21731).
T3 sequence (P21731 whole entry): T2 sequence (whole entry)
Kind of assay: Binding affinity for human Platelet Thromboxane A2 / Prostaglandin (TP), by radioligand competition binding assays using [3H]-SQ 29548 as radioligand.

Consider `O=C(Nc1ccc(CC2NCCc3cc(O)c(O)cc32)cc1I)c1ccccc1` (stereo not drawn), for which the PR in assay [1] was 22; in assay [2], 0.03.
The matching figures for `COc1cc(C[C@@H]2NCCc3cc(O)c(O)cc32)cc(OC)c1OC`: 1 and 1.
In the same order, the values of `Oc1cc2c(cc1O)C(Cc1cc(I)c(I)c(I)c1)NCC2` (stereo not drawn) are 29 and 0.003.
The matching figures for `Nc1c(I)cc(CC2NCCc3cc(O)c(O)cc32)cc1I` (stereo not drawn): 28 and 0.87.
Take `COc1c(I)cc(CC2NCCc3cc(O)c(O)cc32)cc1I` (stereo not drawn): the PR in assay [1] was found to be 21; in assay [2], 3.5.
In the same order, the values of `Oc1cc2c(cc1O)C(Cc1cc(C(F)(F)F)cc(C(F)(F)F)c1)NCC2` (stereo not drawn) are 0.01 and 0.002.
Regarding `Nc1ccc(CC2NCCc3cc(O)c(O)cc32)cc1I` (stereo not drawn), the PR in assay [1] was found to be 6.8; in assay [2] it was 0.16. Besides, the pKi in assay [3] was 8.19; in assay [4], 6.00.
In the case of `CC(=O)Nc1ccc(CC2NCCc3cc(O)c(O)cc32)cc1I` (stereo not drawn), the results for the PR in assay [1] and in assay [2] were 5.6 and 0.11, respectively.

Usually pKi stands for −log10 of the Ki, conventionally taken in molar units. A low value points to a high Ki.
